ChEMBL document CHEMBL2016457, “Discovery of potent and orally bioavailable 17β-hydroxysteroid dehydrogenase type 3 inhibitors” (Bioorg Med Chem, 2012)
The source made the active and inactive calls.

Experiments:
[1] = biological target: T1, 17-beta-hydroxysteroid dehydrogenase type 1 (Homo sapiens) (UniProt P14061); test: Inhibition of human recombinant 17-beta-HSD1 expressed in human HeLa cells using estrone as substrate preincubated for 30 mins prior substrate addition measured after 120 mins by spectrophotometry; assay type: cell-based
T1 sequence (whole entry): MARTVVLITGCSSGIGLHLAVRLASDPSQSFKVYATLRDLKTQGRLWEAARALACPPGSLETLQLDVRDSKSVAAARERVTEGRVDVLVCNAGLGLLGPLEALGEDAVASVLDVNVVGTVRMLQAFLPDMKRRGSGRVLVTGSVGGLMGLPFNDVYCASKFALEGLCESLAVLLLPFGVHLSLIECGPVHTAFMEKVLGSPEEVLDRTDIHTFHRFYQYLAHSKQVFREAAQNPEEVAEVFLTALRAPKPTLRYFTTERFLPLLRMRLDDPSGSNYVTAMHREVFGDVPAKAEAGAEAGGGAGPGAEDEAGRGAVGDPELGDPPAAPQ

[2] = biological target: T2, 17-beta-hydroxysteroid dehydrogenase type 2 (Homo sapiens) (UniProt P37059); test: Inhibition of human recombinant 17-beta-HSD2 expressed in human HeLa cells using estradiol as substrate preincubated for 30 mins prior substrate addition measured after 120 mins by spectrophotometry; assay type: cell-based
T2 sequence (whole entry): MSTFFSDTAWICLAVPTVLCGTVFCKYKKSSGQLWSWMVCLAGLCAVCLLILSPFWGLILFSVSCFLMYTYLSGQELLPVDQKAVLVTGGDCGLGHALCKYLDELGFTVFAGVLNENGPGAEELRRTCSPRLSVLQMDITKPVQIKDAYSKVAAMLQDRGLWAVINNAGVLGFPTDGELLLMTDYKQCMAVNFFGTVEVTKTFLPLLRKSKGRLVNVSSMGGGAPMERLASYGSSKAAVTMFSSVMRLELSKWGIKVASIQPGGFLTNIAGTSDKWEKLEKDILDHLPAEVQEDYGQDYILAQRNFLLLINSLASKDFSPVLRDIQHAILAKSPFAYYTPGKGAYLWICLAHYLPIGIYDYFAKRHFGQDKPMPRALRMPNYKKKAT

[3] = biological target: T3, Glucocorticoid receptor (Homo sapiens) (UniProt P04150); test: Agonist activity at human Glucocorticoid receptor expressed in human HeLa cells assessed as DHT-induced response after 40 hrs by luciferase/beta-galactosidase-based reporter gene assay; assay type: functional, cell-based
T3 sequence (whole entry): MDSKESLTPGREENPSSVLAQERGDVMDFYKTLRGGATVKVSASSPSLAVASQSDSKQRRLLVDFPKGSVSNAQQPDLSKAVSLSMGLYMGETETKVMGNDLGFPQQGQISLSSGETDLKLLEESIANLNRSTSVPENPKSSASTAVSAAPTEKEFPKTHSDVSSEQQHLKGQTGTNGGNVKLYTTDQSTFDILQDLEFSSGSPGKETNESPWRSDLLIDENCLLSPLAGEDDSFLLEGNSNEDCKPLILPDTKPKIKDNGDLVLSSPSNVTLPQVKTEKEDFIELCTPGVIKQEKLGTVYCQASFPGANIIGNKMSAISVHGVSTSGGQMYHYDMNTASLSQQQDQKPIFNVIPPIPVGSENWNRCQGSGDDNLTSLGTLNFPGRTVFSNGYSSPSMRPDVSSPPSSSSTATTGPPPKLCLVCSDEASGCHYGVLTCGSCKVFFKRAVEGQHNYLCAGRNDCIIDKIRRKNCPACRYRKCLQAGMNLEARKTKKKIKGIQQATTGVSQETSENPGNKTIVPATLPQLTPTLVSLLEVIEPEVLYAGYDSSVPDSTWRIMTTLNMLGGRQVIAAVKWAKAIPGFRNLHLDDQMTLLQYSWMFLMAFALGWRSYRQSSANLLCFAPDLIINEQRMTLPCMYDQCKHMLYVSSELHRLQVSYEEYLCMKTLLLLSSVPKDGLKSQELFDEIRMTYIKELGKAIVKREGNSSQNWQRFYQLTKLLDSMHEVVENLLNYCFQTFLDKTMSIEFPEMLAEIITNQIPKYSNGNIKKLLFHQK

[4] = biological target: T4, Estrogen receptor (Homo sapiens) (UniProt P03372); test: Antagonist activity at human ERalpha receptor expressed in human HeLa cells assessed as inhibition of DHT-induced response after 40 hrs by luciferase/beta-galactosidase-based reporter gene assay; assay type: functional, cell-based
T4 sequence (whole entry): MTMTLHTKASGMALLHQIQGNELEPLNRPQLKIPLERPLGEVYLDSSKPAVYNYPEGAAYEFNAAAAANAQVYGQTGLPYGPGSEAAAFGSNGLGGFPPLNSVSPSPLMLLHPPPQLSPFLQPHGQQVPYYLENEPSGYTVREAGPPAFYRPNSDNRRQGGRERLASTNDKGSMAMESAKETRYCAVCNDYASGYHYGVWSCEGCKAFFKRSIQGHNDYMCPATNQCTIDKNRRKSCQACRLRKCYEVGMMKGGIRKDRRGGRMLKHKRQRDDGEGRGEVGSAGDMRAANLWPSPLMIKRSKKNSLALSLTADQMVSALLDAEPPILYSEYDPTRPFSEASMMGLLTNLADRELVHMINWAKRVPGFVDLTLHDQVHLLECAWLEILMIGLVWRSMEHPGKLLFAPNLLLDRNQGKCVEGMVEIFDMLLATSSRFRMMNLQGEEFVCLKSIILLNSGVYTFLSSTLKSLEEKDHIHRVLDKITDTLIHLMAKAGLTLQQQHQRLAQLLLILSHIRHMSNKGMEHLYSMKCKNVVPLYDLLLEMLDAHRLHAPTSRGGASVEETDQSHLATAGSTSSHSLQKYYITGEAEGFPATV

[5] = biological target: T3, Glucocorticoid receptor (Homo sapiens); test: Antagonist activity at human GR receptor expressed in human HeLa cells assessed as inhibition of DHT-induced response after 40 hrs by luciferase/beta-galactosidase-based reporter gene assay; assay type: functional, cell-based

COc1ccc(N2C(=O)/C(=C/c3cc(Cl)c(OP(=O)(O)O)c(Cl)c3)OC2=S)cc1
inactive: inhibition [1] | inhibition [2] | Activity [3] | Activity [4] | Activity [5]

COc1ccc(N2C(=O)/C(=C/c3cc(Cl)c(O)c(Cl)c3)OC2=S)cc1
inactive: inhibition [1] | inhibition [2] | Activity [3] | Activity [4] | Activity [5]
